Data published in patent US20200239587A1, “SENSITIZATION OF TUMORS TO THERAPIES THROUGH ENDOGLIN ANTAGONISM” (Cedars-Sinai Medical Center, priority 2016, published 2020).

How the values were obtained:
CW22Rv1 xenograft model = assay: Subcutaneous CW22Rv1 xenograft with radiation; type: in vivo, mice
Experimental: Tumor volumes were longitudinally measured. When tumor average volume reached […] mice were treated with IgG or TRC105 in the context of radiation (2 Gy for 5 days). Tumors were harvested 15 days after the first dose of radiation. FIG. 28A) Tumor volume fold change was normalized to the first dose of radiation (day 1, ***p<0.001). FIG. 28B) Each treatment was compared for doubling of tumor volume as a function of time as depicted in the cumulative incidence plot.
The inventors assessed CD105 dependent radio-resistance using a CW22Rv1 xenograft model. Mice engrafted with subcutaneous CW22Rv1 were given one dose of IgG or TRC105 72 hours prior to radiation and subsequently 3 times a week for the duration of radiation treatment. The irradiated IgG and irradiated TRC105 groups were given a radiation dosage of 2Gy for 5 consecutive days. Fold change in tumor volume was calculated for each group (FIG. 28A).

CW22Rv1 = assay: Clonogenic survival assay with radiation; type: cell-based, human; conditions: 1 μg/ml TRC105 vs IgG, 0 to 6 Gy; p<0.001
Experimental: (§1) FIG. 18A) Cell surface CD105 expression was measured in PC3, C42b, and 22Rv1 72 hours after 4 Gy irradiation treatment by FACS analysis and compared to cells not irradiated (control). FIG. 18B) Cell surface CD105 expression was measured in cell lines following a dose range of irradiation (0, 2, 4, or 6 Gy). FIG. 18C) The durability of cell surface CD105 expression in 22Rv1 was determined 0, 0.5, 4, 8, 24, 48, 72, 120, and 168 hours following 4 Gy irradiation. CD105 cell surface expression fold change was normalized to levels expressed prior to irradiation. FIG. 18D) Western blot for phosphorylated-Smad1/5 was measured in CW22Rv1 cells in the presence or absence of serum starvation and treatment with 50 ng/ml BMP4 or 1 μg/ml TRC105. β-actin expression served as the loading control. FIG. 18E) Annexin-V expression was measured in 22Rv1 cells by FACS analysis 5 days following 4 Gy irradiation in the presence and absence of TRC105. FIG. 18F) Clonogenic assay was measured 10 days following irradiation of CW22Rv1 and C42b cells in a dose range of 0 to 6 Gy in the presence of 1 μg/ml IgG or TRC105. Data are reported as a mean+/−S.D. (**p<0.01, ***p<0.001).

C4-2B = assay: Clonogenic survival assay with radiation; type: cell-based, human; conditions: 1 μg/ml TRC105 vs IgG, 0 to 6 Gy; p<0.001
Experimental: as §1

[1] = system: CD105 cell surface expression in human CW22Rv1 epithelia and mouse prostatic fibroblasts; assay: 3D co-culture, CD105 cell surface expression by FACS; type: cell-based; conditions: hypoxia (2% O2), 72 hours; mouse prostatic fibroblasts and human prostate cancer epithelia
Experimental: After 72 hours, the cells were dissociated and assessed by FACS for CD105 expression as shown.
A modified version of the 3D organotypic co-culture system was performed in a collagen matrix similar to that previously reported (Stark et al., 1999, J Invest Dermatol 112, 681-691). Collagen matrix gels were prepared by mixing five volumes of rat tail collagen I with two volumes of matrigel (NCI), one volume of 10× DMEM medium (GE Healthcare Life Sciences), and one volume of FBS (Atlanta Biologicals), Rv1 and primary mouse prostatic fibroblasts were combined in a 1:3 ratio. Nylon squares were coated with collagen and placed on metal grids in a 6-well plate. Gel plugs (150 μl) were transferred onto the nylon squares and media was added to the level of the nylon mesh. After 72 hours, the cells were dissociated from the matrix with collagenase and dispersed for FACS analysis.
FACS experiments were performed with eBiosciences antibodies: anti-human Stro-1-FITC (340105), anti-human CD90-PE (12-0909-42), anti-human CD105-APC (17-1057-41), anti-mouse CD105-APC (17-1051-82), anti-human CD117-PE-Cy7 (15-1178-41), anti-human Ki67-PECy7 (25-5699-41), and anti-human EpCAM-PE (12-9326-41). All events were acquired on a BD LSRII flow cytometer in the Cedars-Sinai Medical Center FACS core installed with BD FACSDiva software. Files were analyzed using FlowJo software v10.2. […]

22Rv1 = assay: γ-H2AX and p53BP foci after irradiation; type: cell-based, human; conditions: for γ-H2AX and p53BP foci: TRC105 plus 4Gy vs radiation alone
Experimental: 22Rv1 were pre-treated with 1 μg/ml TRC105 24 hours prior to irradiation with 4 Gy. FIG. 22A) γ-H2AX or p53 bp were imunolocalized at 4, 24, and 48 hours post radiation. Foci per nuclei were quantified (n=100). FIG. 22B) Comet assay was performed 30 minutes and 24 hours following irradiation. The tail moment was quantified (n=50). FIG. 22C) Cell cycle analysis was performed on 22Rv1 at 0, 4, 8, and 24 hours post radiation in the presence of IgG or TRC105 (n=3) in 3 independent experiments. (***p<0.001, ****p<0.0001).

For “TRC105: partially humanized monoclonal antibody that blocks BMP signaling; human-specific CD105 (endoglin) neutralizing antibody from Tracon Pharmaceuticals”, the tumor volume (CW22Rv1 xenograft model; TRC105 alone compared to untreated) was “did not influence tumor volume”, the tumor doubling time (CW22Rv1 xenograft model; TRC105 with irradiation vs either treatment alone) was “appreciably inhibited” and the tumor volume (CW22Rv1 xenograft model; radiation (2Gy for 5 days) and TRC105, p<0.001) was “significantly lower than the other three experimental groups”. For the same substance, the “radiation sensitivity, clonogenic survival” value (CW22Rv1) was “sensitized prostate cancer cells to radiation”, the “radiation sensitivity, clonogenic survival” value (C4-2B) was “sensitized prostate cancer cells to radiation” and the “enzalutamide-induced CD105 cell surface expression” value [1] was “down regulated”. The “number of cells with greater than 10 foci per nuclei” value (22Rv1; TRC105 alone (radiation alone 59.6%)) was 4.3%, the “γ-H2AX and p53BP foci” value (22Rv1; 4 and 24 hours post radiation) was “significant increase in γ-H2AX and p53BP foci” and the “γ-H2AX and p53BP foci” value (22Rv1; by 48 hours) was “no difference”. The “double stranded DNA breaks” value (22Rv1; TRC105 treatment alone vs untreated, within 24 hours, persisted past 72 hours) was “significant increase in double stranded DNA breaks”.
